From patent EP0173319A1, “Substituted arylsulfonyl guanidines” (BAYER AG, priority 1984, dated 1986)

Columns and labels:
Testpflanzen [1] = test: Pre-emergence-Test (herbicidal); format: in vivo; settings: soil watered 24 h after sowing, damage rated after three weeks vs untreated control (0 % = keine Wirkung, 100 % = totale Vernichtung), rate or species not given
From the text: (§1) Lösungsmittel: 5 Gewichtsteile Aceton Emulgator: 1 Gewichtsteil Alkylarylpolyglykolether
(§2) Zur Herstellung einer zweckmäßigen Wirkstoffzubereitung vermischt man 1 Gewichtsteil Wirkstoff mit der angegebenen Menge Lösungsmittel, gibt die angegebene Menge Emulgator zu und verdünnt das Konzentrat mit Wasser auf die gewünschte Konzentration.
Samen der Testpflanzen werden in normalen Boden ausgesät und nach 24 Stunden mit der Wirkstoffzubereitung begossen. Dabei hält man die Wassermenge pro Flächeneinheit zweckmäßigerweise konstant. Die Wirkstoffkonzentration in der Zubereitung spielt keine Rolle, entscheidend ist nur die Aufwandmenge des Wirkstoffs pro Flächeneinheit. Nach drei Wochen wird der Schädigungsgrad der Pflanzen bonitiert in % Schädigung im Vergleich zur Entwicklung der unbehandelten Kontrolle. Es bedeuten: • 0 % = keine Wirkung (wie unbehandelte Kontrolle) 100 % = totale Vernichtung

Testpflanzen [2] = test: Post-emergence-Test (herbicidal); format: in vivo; settings: test plants 5 - 15 cm high sprayed, damage rated after three weeks vs untreated control (0 % = keine Wirkung, 100 % = totale Vernichtung), rate or species not given
From the text: as §1, §2
Mit der Wirkstoffzubereitung spritzt man Testpflanzen, welche eine Höhe von 5 - 15 cm haben so, daß die jeweils gewünschten Wirkstoffmengen pro Flächeneinheit ausgebracht werden. Die Konzentration der Spritzbrühe wird so gewählt, daß in 2000 1 Wasser/ha die jeweils gewünschten Wirkstoffmengen ausgebracht werden. Nach drei Wochen wird der Schädigungsgrad der Pflanzen bonitiert in % Schädigung im Vergleich zur Entwicklung der unbehandelten Kontrolle.
Es bedeuten: • 0 % = keine Wirkung (wie unbehandelte Kontrolle) 100 % = totale Vernichtung

Compound | herbizide Wirksamkeit (Testpflanzen [1]) | herbizide Wirksamkeit (Testpflanzen [2])
CON(C(=NS(=O)(=O)c1ccccc1SC)Nc1nc(C)cc(C)n1)S(=O)(=O)c1ccccc1SC [Beispiel 1, N'-(4,6-Dimethyl-pyrimidin-2-yl)-N''-methoxy-N'',N'''-bis-(2-methylthio-benzolsulfonyl)-guanidin] | sehr gute herbizide Wirksamkeit | sehr gute herbizide Wirksamkeit
Cc1cc(C)nc(NC(=NS(=O)(=O)c2ccccc2S(=O)(=O)N(C)C)NN(C)C)n1 [Beispiel 2, N'-(4,6-Dimethyl-pyrimidin-2-yl)-N''-dimethylamino-N'''-(2-dimethylamino-sulfonyl-benzolsulfonyl)-guanidin] | sehr gute herbizide Wirksamkeit | sehr gute herbizide Wirksamkeit
Cc1cc(C)nc(NC(=NS(=O)(=O)c2ccccc2S(=O)(=O)N(C)C)N(OCC(C)C)S(=O)(=O)c2ccccc2S(=O)(=O)N(C)C)n1.[K] [Beispiel 4, N'-(4,6-Dimethyl-pyrimidin-2-yl)-N''-(2-methyl-propoxy)-N'',N'''-bis-(2-dimethylaminosulfonyl-benzolsulfonyl)-guanidin-Kaliumsalz] |  | sehr gute herbizide Wirksamkeit
